Assay results taken from US9650339B2, “Inhibitors of histone demethylases” (Gilead Sciences, Inc., priority 2013, dated 2017).

Legend:
KDM4B (JMJD2B) = target: T1, KDM4B (JMJD2B) (Homo sapiens, UniProt O94953); test: Histone lysine demethylase AlphaLISA assay, KDM4B; type: biochemical; details: read-out: KDM4B HDME Inhibition IC50
T1 construct: 2-500; purchased BPS; host or cells: Bac (baculovirus system)
T1 sequence (O94953 2-500): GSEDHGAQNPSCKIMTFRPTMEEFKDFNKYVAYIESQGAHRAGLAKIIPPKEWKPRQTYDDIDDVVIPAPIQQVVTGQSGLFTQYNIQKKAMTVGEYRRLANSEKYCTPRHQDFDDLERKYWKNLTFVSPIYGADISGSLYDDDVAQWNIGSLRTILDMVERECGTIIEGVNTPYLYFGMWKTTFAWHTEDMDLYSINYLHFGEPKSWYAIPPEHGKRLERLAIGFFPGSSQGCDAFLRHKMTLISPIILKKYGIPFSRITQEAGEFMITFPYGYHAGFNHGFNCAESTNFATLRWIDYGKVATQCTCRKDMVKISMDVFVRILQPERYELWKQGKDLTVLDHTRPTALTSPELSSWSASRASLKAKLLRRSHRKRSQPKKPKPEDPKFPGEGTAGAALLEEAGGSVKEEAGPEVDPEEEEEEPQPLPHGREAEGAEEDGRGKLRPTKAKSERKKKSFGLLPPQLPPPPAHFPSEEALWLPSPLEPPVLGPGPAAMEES
Description: (§1) Assays are performed analogously to the protocol described by PerkinElmer (Roy et al. PerkinElmer Technical Note: AlphaLISA #12, April 2011)
(§2) Enzymes are dissolved in enzyme buffer and incubated for 10 min before being added to 3% DMSO solutions of compounds in enzyme buffer. Incubated for another 10 minutes, before substrate solution is added and the reaction mixture is incubated at room temperature. 10 μL acceptor beads, suspended in Epigenetic Buffer (Perkin Elmer AL008) from stock, are added and the suspension is incubated in the dark at room temperature, before a suspension of streptavidin donor beads (Perkin Elmer 6760002) in Epigenetic Buffer is added. After incubation at room temperature in the dark the plates are read.
BK9M3: Biotin-ARTKQTAR(KMe3)STGGKAPRKQ-NH2 (Caslo, Denmark) […]
(§3) Substrate Solution: Substrate, 25 μM L-Asc, and 10 μM α-KG in Buffer A.

MCF7 cells = test: Cell proliferation assay MCF7; type: cell-based; details: MCF7 human breast cancer cells; 120 hours; ATPlite 1 Step
Summary of the method: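 Cells grown 24 h in DMEM GlutaMAX/10% FBS, then exposed to compounds in duplicate (≤0.5% DMSO) for 120 h. Viability read as ATP luminescence (ATPlite 1 Step). Seeding set to reach ~90% confluence at harvest.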

KDM3B (JMJD1B) = target: T2, KDM3B (JMJD1B) (Homo sapiens, UniProt Q7LBC6); test: Histone lysine demethylase AlphaLISA assay, KDM3B; type: biochemical; details: read-out: KDM3B HDME Inhibition IC50
T2 construct: 842-1761; host or cells: Bac (baculovirus system)
T2 sequence (Q7LBC6 842-1761): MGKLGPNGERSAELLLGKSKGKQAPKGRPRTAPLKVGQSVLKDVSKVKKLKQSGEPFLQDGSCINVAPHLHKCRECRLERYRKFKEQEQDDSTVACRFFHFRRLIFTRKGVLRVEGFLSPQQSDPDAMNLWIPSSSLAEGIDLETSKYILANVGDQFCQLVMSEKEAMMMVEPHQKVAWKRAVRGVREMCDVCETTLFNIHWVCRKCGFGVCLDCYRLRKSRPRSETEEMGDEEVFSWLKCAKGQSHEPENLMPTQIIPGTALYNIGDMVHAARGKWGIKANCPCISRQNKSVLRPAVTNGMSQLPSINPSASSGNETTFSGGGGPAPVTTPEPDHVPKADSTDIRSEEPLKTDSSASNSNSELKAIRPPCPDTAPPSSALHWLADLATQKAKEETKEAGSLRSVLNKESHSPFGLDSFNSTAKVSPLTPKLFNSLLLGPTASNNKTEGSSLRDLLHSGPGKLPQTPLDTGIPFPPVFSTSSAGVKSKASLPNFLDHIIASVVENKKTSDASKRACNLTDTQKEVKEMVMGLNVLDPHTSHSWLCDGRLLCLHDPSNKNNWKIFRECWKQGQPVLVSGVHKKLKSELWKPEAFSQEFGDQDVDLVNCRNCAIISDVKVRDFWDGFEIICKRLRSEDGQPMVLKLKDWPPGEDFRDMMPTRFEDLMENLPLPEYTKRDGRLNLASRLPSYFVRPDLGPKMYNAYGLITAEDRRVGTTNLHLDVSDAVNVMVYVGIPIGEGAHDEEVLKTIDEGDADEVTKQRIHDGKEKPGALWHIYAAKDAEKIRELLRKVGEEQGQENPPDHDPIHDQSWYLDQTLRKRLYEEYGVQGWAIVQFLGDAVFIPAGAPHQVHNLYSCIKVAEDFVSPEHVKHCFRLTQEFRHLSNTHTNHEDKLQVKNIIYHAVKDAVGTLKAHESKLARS
Description: as §1
as §2, with “read. […]” for “read.”
BK9M2: Biotin-ARTKQTAR(KMe2)STGGKAPRKQ-NH2 (AnaSpec 64359) […]
as §3

H3K4me3 mark = test: Histone lysine demethylase immunofluorescence assay, non-transfected U2OS cells; type: cell-based; details: Homo sapiens, staining of the H3K4me3 mark, 20 hours incubation with compound
Description: U2OS cells were harvested and seeded into multi well plates into media containing compound. The media used was DMEM containing 5% FBS and pen/strep. 20 hours after incubation of cells with compounds, the cells were washed once in PBS, harvested by fixation with formaldehyde 4% aqueous solution, and washed in PBS. Subsequently, the cells were permeabilized in PBS with 0.2% Triton X-100. Blocking was performed in PBS with 0.2% Triton X-100 and 5% FBS. The cells were incubated with αH3K4me3 primary antibody (Cell Signaling, #9751S) in blocking solution over night at 4° C. After incubation with primary antibody, the cells were washed with PBS, incubated with secondary antibody (Alexa fluor 594 goat anti rabbit IgG, Invitrogen, A11012) and Hoechst, (Sigma, 33342) in blocking solution, and washed again with PBS. Finally, PBS was added and high throughput imaging and analysis were performed by an IN Cell Analyzer 1000 (GE Healthcare). The IC50 values were based on an average measure of the staining of the H3K4me3 mark in cells.

Row | Structure (SMILES) | IC50 (KDM4B (JMJD2B)) [nM] | EC50 (MCF7 cells) [nM] | IC50 (KDM3B (JMJD1B)) [nM] | IC50 (H3K4me3 mark) [nM]
1 | CCN(CC)CCCCNCc1cc(CN)ccn1 [Compound 5, [2-({[4-(diethylamino)butyl]-amino}methyl)pyridin-4-yl]methanamine] | > 2500 | < 250 | > 2500 | 
2 | CN(C)CCCCCNCc1cc(CN)ccn1 [Compound 8, [2-({[5-(dimethylamino)pentyl]-amino}methyl)pyridin-4-yl]methanamine] | > 2500 | < 250 | > 2500 | 
3 | CN(C)C(=O)CNCc1cc(/C=N/CCCc2ccccc2)ccn1 [Compound 34, N,N-dimethyl-2-[({4-[[(3-phenylpropyl)imino]-methyl]pyridin-2-yl}methyl)amino]-acetamide] | > 2500 | > 2500 | > 2500 | 
4 | CN1CCN(C(=O)CNCc2cc(/C=N/C3CC3)ccn2)CC1 [Compound 54, 2-[({4-[N-cyclopropyl-carboximidoyl]-pyridin-2-yl}methyl)amino]-1-(4-methylpiperazin-1-yl)ethan-1-one] | 250 to 2500 |  | 250 to 2500 | 
5 | O=C(CNCc1cc(/C=N/C2CC2)ccn1)N1CCC(Cc2ccccc2)CC1 [Compound 55, 1-(4-benzylpiperidin-1-yl)-2-[({4-[N-cyclopropyl-carboximidoyl]-pyridin-2-yl}methyl)amino]-ethan-1-one] | < 250 |  | > 2500 | 
6 | CCN(CC)CCCCNCc1cc(/C=N/CCOC)ccn1 [Compound 60, [4-(diethylamino)butyl]-({4-[[(2-methoxyethyl)imino]-methyl]pyridin-2-yl}methyl)amine] | < 250 | < 250 | > 2500 | 
7 | CCN(CCN(C)C)C(=O)CNCc1cc(/C=N/CCC2CCCCC2)ccn1 [Compound 63, 2-[({4-[[(2-cydohexylethyl)-imino]methyl]pyridin-2-yl}methyl)amino]-N-[2-(dimethylamino)-ethyl]-N-ethylacetamide] | 250 to 2500 | < 250 | > 2500 | 
8 | CCN(CC)CCCCNCc1cc(C2NCCN2C)ccn1 (centres unmarked) [Compound 65, [4-(diethylamino)-butyl]({[4-(1-methylimidazolidin-2-yl)pyridin-2-yl]methyl})amine] | > 2500 | < 250 | > 2500 | 
9 | CN(C)C/C=C/CNCc1cc(C=O)ccn1 [Compound 98, 2-({[(2E)-4-(dimethylamino)but-2-en-1-yl]amino}-methyl)pyridine-4-carbaldehyde] | > 2500 | < 250 | > 2500 | 
10 | O=Cc1ccnc(CNCC(=O)N2CCC[C@@H]2CN2CCCC2)c1 [Compound 102, 2-[({2-oxo-2-[(2R)-2-(pyrrolidin-1-ylmethyl)pyrrolidin-1-yl]ethyl}amino)-methyl]pyridine-4-carbaldehyde] | 250 to 2500 | 250 to 2500 | > 2500 | 
11 | CN1CCN(C(=O)CNCc2cc(C=O)ccn2)CC1 [Compound 103, 2-({[2-(4-methylpiperazin-1-yl)-2-oxoethyl]-amino}methyl)-pyridine-4-carbaldehyde] | > 2500 |  | > 2500 | 
12 | O=Cc1ccnc(CNCC(=O)N2CCC(Cc3ccccc3)CC2)c1 [Compound 106, 2-({[2-(4-benzylpiperidin-1-yl)-2-oxoethyl]-amino}methyl)-pyridine-4-carbaldehyde] | < 250 |  | > 2500 | 

The next lines start with the values.

Row | IC50 (KDM4B (JMJD2B)) [nM] | EC50 (MCF7 cells) [nM] | IC50 (KDM3B (JMJD1B)) [nM] | IC50 (H3K4me3 mark) [nM] | Structure (SMILES)
13 | 250 to 2500 | < 250 | > 2500 |  | CN(C)CCC/N=C/c1ccnc(CNCCCN(C)C)c1 [Compound 37, [3-(dimethylamino)propyl]-({4-[{[3-(dimethylamino)propyl]-imino}methyl]pyridin-2-yl}methyl)amine]
14 | 250 to 2500 | < 250 | > 2500 |  | C(=N/C1CC1)/c1ccnc(CNCCCN2CCCC2)c1 [Compound 42, N-{[2-({[3-(pyrrolidin-1-yl)propyl]amino}-methyl)pyridin-4-yl]methylidene}-cyclopropanamine]
15 | < 250 |  | > 2500 |  | O=C(CNCc1cc(/C=N/C2CC2)ccn1)NC1CCN(Cc2ccccc2)C1 (centres unmarked) [Compound 53, N-(1-benzylpyrrolidin-3-yl)-2-[({4-[N-cyclopropyl-carboximidoyl]pyridin-2-yl}methyl)amino]-acetamide]
16 | 250 to 2500 |  | > 2500 |  | C#CCN(C)C(=O)CNCc1cc(/C=N/C2CC2)ccn1 [Compound 56, 2-[({4-[N-cyclopropyl-carboximidoyl]-pyridin-2-yl}methyl)amino]-N-methyl-N-(prop-2-yn-1-yl)acetamide]
17 | < 250 | < 250 | > 2500 |  | CCN(CCN(C)C)C(=O)CNCc1cc(/C=N/CCO)ccn1 [Compound 66]
18 |  | < 250 |  | < 250 | CCN(CCN(C)C)C(=O)CNCc1cc(C2OCC(Cc3ccccc3)CN2C(=O)C(F)(F)F)ccn1 (centres unmarked) [Compound 90, 2-[({4-[5-benzyl-3-(trifluoroacetyl)-1,3-oxazinan-2-yl]pyridin-2-yl}methyl)amino]-N-[2-(dimethylamino)-ethyl]-N-ethylacetamide]
19 | < 250 |  | > 2500 |  | CCN1CCCC1CNC(=O)CNCc1cc(C=O)ccn1 (centres unmarked) [Compound 104, N-[(1-ethylpyrrolidin-2-yl)methyl]-2-{[(4-formylpyridin-2-yl)methyl]amino}-acetamide]
20 | < 250 |  | > 2500 |  | CCN(CC)C(=O)CNCc1cc(C=O)ccn1 [Compound 105, N,N-diethyl-2-{[(4-formylpyridin-2-yl)methyl]amino}-acetamide]
21 | 250 to 2500 |  | > 2500 |  | CN(C)CCCCCNCc1cc(C=O)ccn1 [Compound 114, 2-({[5-(dimethylamino)-pentyl]amino}methyl)-pyridine-4-carbaldehyde]
